Tests used:
[1] = biological target: T1, GLS1 (purified recombinant human GAC) (Homo sapiens, UniProt O94925); experiment: GLS1 enzymatic activity assay (dual-coupled, Amplex UltraRed/resorufin); type: biochemical
T1 sequence (O94925 55-598 isoform O94925-3 limits assumed): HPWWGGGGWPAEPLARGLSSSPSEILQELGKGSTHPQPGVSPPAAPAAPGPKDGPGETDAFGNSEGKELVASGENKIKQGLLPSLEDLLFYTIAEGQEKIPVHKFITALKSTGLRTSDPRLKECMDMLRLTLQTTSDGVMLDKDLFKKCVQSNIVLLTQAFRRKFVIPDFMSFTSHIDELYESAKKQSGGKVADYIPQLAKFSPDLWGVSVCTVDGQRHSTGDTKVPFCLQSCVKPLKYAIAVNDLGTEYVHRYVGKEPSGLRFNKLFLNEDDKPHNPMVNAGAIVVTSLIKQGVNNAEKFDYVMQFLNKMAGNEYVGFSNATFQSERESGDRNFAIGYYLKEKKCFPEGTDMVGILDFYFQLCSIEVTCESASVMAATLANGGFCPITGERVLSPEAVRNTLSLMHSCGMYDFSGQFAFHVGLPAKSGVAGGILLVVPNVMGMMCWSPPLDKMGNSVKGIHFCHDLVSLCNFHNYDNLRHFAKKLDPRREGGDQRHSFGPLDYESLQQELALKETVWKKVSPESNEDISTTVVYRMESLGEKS
Method in brief: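 GAC activity measured by coupling glutamate to glutamate oxidase and HRP, generating resorufin from Amplex UltraRed. Enzyme (2 nM) preincubated with 50 mM potassium phosphate 10 min at room temperature, then inhibitor 10 min; 1 mM glutamine substrate, 1% DMSO. Fluorescence 530/590 nm, kinetic or 20-min endpoint; IC50 from four-parameter logistic fit.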

A549 cells = experiment: A549 proliferation (viability) assay, Cell Titer Fluor, 72 hours; type: cell-based; conditions: Homo sapiens
Method in brief: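 A549 cells seeded at 1000 cells/well, left 24 h, then exposed to compound for 72 h at 37 °C, 5% CO2, final DMSO 0.5% (v/v). Viability read by Cell Titer Fluor fluorescence; EC50 from four-parameter logistic fit.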

Row | Structure (SMILES) | IC50 [1] [nM] | EC50 (A549 cells) [nM]
1 | CCOC(=O)C(=O)Nc1ccn(CCC(F)Cn2cc(C(=O)NCc3cccc(OC(F)(F)F)c3)nn2)c(=O)c1F (centres unmarked) [Example 347, ethyl [(3-fluoro-1-{3-fluoro-4-[4-({[3-(trifluoromethoxy)phenyl]methyl}carbamoyl)-1H-1,2,3-triazol-1-yl]butyl}-2-oxo-1,2-dihydropyridin-4-yl)carbamoyl]formate] | 100 to 500 | > 5000
2 | CC(C)(C)OC(=O)c1cn(CC(F)CCn2ccc(CO)cc2=O)nn1 (centres unmarked) [Example 408, tert-butyl 1-{2-fluoro-4-[4-(hydroxymethyl)-2-oxo-1,2-dihydropyridin-1-yl]butyl}-1H-1,2,3-triazole-4-carboxylate] | > 5000 | > 5000
3 | CC(C)CC(=O)Nc1ccn(CCCCn2cc(C(=O)NCc3cccnc3)nn2)c(=O)c1 [Example 37, 1-{4-[4-(3-methylbutanamido)-2-oxo-1,2-dihydropyridin-1-yl]butyl}-N-(pyridin-3-ylmethyl)-1H-1,2,3-triazole-4-carboxamide] | 500 to 5000 | > 5000
4 | Nc1ccn(CCC(F)Cn2cc(C(=O)NCc3cccc(OC(F)(F)F)c3)nn2)c(=O)n1 (centres unmarked) [Example 382, 1-[4-(4-amino-2-oxo-1,2-dihydropyrimidin-1-yl)-2-fluorobutyl]-N-{[3-(trifluoromethoxy)phenyl]methyl}-1H-1,2,3-triazole-4-carboxamide] | 500 to 5000 | > 5000
5 | O=C(Nc1ccn(CCC(F)Cn2cc(C(=O)NCc3cccc(OC(F)(F)F)c3)nn2)c(=O)c1F)c1ccccc1 (centres unmarked) [Example 353, 1-[4-(4-benzamido-3-fluoro-2-oxo-1,2-dihydropyridin-1-yl)-2-fluorobutyl]-N-{[3-(trifluoromethoxy)phenyl]methyl}-1H-1,2,3-triazole-4-carboxamide] | < 100 | 100 to 500
6 | O=C(CC1CCN(C(=O)CC(F)(F)F)CC1)Nc1ccn(CCC(F)Cn2cc(C(=O)NCc3cccc(OC(F)(F)F)c3)nn2)c(=O)c1F (centres unmarked) [Example 301, 1-[2-fluoro-4-(3-fluoro-2-oxo-4-{2-[1-(3,3,3-trifluoropropanoyl)piperidin-4-yl]acetamido}-1,2-dihydropyridin-1-yl)butyl]-N-{[3-(trifluoromethoxy)phenyl]methyl}-1H-1,2,3-triazole-4-carboxamide] | < 100 | < 100
7 | CC(C)CNC(=O)c1cn(CC(F)CCn2ccc(NC(=O)CN3CCN(C(=O)OC(C)(C)C)CC3)cc2=O)nn1 (centres unmarked) [Example 404, tert-butyl 4-({[1-(3-fluoro-4-{4-[(2-methylpropyl)carbamoyl]-lH-1,2,3-triazol-1-yl}butyl)-2-oxo-1,2-dihydropyridin-4-yl]carbamoyl}methyl)piperazine-1-carboxylate] | 100 to 500 | 500 to 5000
8 | COCC1CCN(CC(=O)Nc2ccn(CCC(F)Cn3cc(C(=O)NCc4cccc(OC(F)(F)F)c4)nn3)c(=O)c2)CC1 (centres unmarked) [Example 272, 1-[2-fluoro-4-(4-{2-[4-(methoxymethyl)piperidin-1-yl]acetamido}-2-oxo-1,2-dihydropyridin-1-yl)butyl]-N-{[3-(trifluoromethoxy)phenyl]methyl}-1H-1,2,3-triazole-4-carboxamide] | < 100 | 100 to 500
9 | Cc1ccc(CNC(=O)c2cn(CC(F)CCn3ccc(NC(=O)CC4CCOCC4)cc3=O)nn2)cn1 (centres unmarked) [Example 197, 1-(2-fluoro-4-{4-[2-(oxan-4-yl)acetamido]-2-oxo-1,2-dihydropyridin-1-yl}butyl)-N-[(6-methylpyridin-3-yl)methyl]-1H-1,2,3-triazole-4-carboxamide] | < 100 | 500 to 5000
10 | CC(C)(C)OC(=O)Nc1ccn(CCC(F)Cn2cc(C(=O)NCc3cncc(C(F)(F)F)c3)nn2)c(=O)c1F (centres unmarked) [Example 330, tert-butyl N-(3-fluoro-1-{3-fluoro-4-[4-({[5-(trifluoromethyl)pyridin-3-yl]methyl}carbamoyl)-1H-1,2,3-triazol-1-yl]butyl}-2-oxo-1,2-dihydropyridin-4-yl)carbamate] | < 100 | 100 to 500
11 | CCOC(=O)N1CCN(CC(=O)Nc2ccn(CCC(F)Cn3cc(C(=O)NCc4cccc(OC(F)(F)F)c4)nn3)c(=O)c2F)CC1 (centres unmarked) [Example 292, ethyl 4-{[(3-fluoro-1-{3-fluoro-4-[4-({[3-(trifluoro-methoxy)phenyl]methyl}carbamoyl)-1H-1,2,3-triazol-1-yl]butyl}-2-oxo-1,2-dihydropyridin-4-yl)carbamoyl]methyl}piperazine-1-carboxylate] | < 100 | < 100
12 | O=C(Cc1ccccn1)Nc1nnc(CCCCn2ccc(NC(=O)CC3CCCC3)c(F)c2=O)s1 [Example 504, 2-cyclopentyl-N-[3-fluoro-2-oxo-1-(4-{5-[2-(pyridin-2-yl)acetamido]-1,3,4-thiadiazol-2-yl}butyl)-1,2-dihydropyridin-4-yl]acetamide] | < 100 | 100 to 500
13 | O=C(CC1CCCCC1)Nc1ccn(CCCCn2cc(C(=O)NCc3ccccn3)nn2)c(=O)c1 [Example 190, 1-{4-[4-(2-cyclohexylacetamido)-2-oxo-1,2-dihydropyridin-1-yl]butyl}-N-(pyridin-2-ylmethyl)-1H-1,2,3-triazole-4-carboxamide] | < 100 | 500 to 5000
14 | Cc1ccc(CNC(=O)c2cn(CC(F)CCn3ccc(NC(=O)C(=O)N4CCCC4)c(F)c3=O)nn2)cn1 (centres unmarked) [Example 411, 1-(2-fluoro-4-{3-fluoro-2-oxo-4-[2-oxo-2-(pyrrolidin-1-yl)acetamido]-1,2-dihydropyridin-1-yl}butyl)-N-[(6-methylpyridin-3-yl)methyl]-1H-1,2,3-triazole-4-carboxamide] | 500 to 5000 | 500 to 5000
15 | Nc1ccn(CCC(F)Cn2cc(C(=O)NCc3cncc(C(F)(F)F)c3)nn2)c(=O)c1F (centres unmarked) [Example 331, 1-[4-(4-amino-3-fluoro-2-oxo-1,2-dihydropyridin-1-yl)-2-fluorobutyl]-N-{[5-(trifluoromethyl)pyridin-3-yl]methyl}-1H-1,2,3-triazole-4-carboxamide] | 500 to 5000 | > 5000

Other lines, results leading:

Row | IC50 [1] [nM] | EC50 (A549 cells) [nM] | Structure (SMILES)
16 | < 100 | < 100 | O=C(CC1CCCCC1)Nc1ccn(CCC(F)Cn2cc(C(=O)NCc3cc(OC(F)(F)F)ccc3F)nn2)c(=O)c1 (centres unmarked) [Example 176, 1-{4-[4-(2-cyclohexylacetamido)-2-oxo-1,2-dihydropyridin-1-yl]-2-fluorobutyl}-N-{[2-fluoro-5-(trifluoromethoxy)phenyl]methyl}-1H-1,2,3-triazole-4-carboxamide]
17 | < 100 | 100 to 500 | CC(C)OC(=O)Nc1ccn(CCCCn2cc(C(=O)NCc3cccc(OC(F)(F)F)c3)nn2)c(=O)c1 [Example 43, propan-2-yl N-(2-oxo-1-{4-[4-({[3-(trifluoromethoxy)phenyl]methyl}carbamoyl)-1H-1,2,3-triazol-1-yl]butyl}-1,2-dihydropyridin-4-yl)carbamate]
18 | < 100 | 500 to 5000 | O=C(Cc1cccc(OC(F)(F)F)c1)Nc1ccn(CCCCn2cc(C(=O)NCc3cccc(F)c3)nn2)c(=O)c1 [Example 66, N-[(3-fluorophenyl)methyl]-1-[4-(2-oxo-4-{2-[3-(trifluoromethoxy)phenyl]acetamido}-1,2-dihydropyridin-1-yl)butyl]-1H-1,2,3-triazole-4-carboxamide]
19 | < 100 | 100 to 500 | O=C(Cc1nccs1)Nc1ccn(CCC(F)Cn2cc(C(=O)NCc3cccc(OC(F)(F)F)c3)nn2)c(=O)c1 (centres unmarked) [Example 252, 1-(2-fluoro-4-{2-oxo-4-[2-(1,3-thiazol-2-yl)acetamido]-1,2-dihydropyridin-1-yl}butyl)-N-{[3-(trifluoromethoxy)phenyl]methyl}-1H-1,2,3-triazole-4-carboxamide]
20 | < 100 | < 100 | O=C(CN1CCCC(F)C1)Nc1ccn(CCC(F)Cn2cc(C(=O)NCc3cccc(OC(F)(F)F)c3)nn2)c(=O)c1F (centres unmarked) [Example 291, 1-(2-fluoro-4-{3-fluoro-4-[2-(3-fluoropiperidin-1-yl)acetamido]-2-oxo-1,2-dihydropyridin-1-yl}butyl)-N-{[3-(trifluoromethoxy)phenyl]methyl}-1H-1,2,3-triazole-4-carboxamide]
21 | < 100 | 500 to 5000 | O=C(Cc1ccccc1)Nc1ccc(CCCCn2ccc(NC(=O)[C@H](O)c3ccccc3)nc2=O)nn1 [Example 100, (2R)-2-hydroxy-N-(2-oxo-1-{4-[6-(2-phenylacetamido)pyridazin-3-yl]butyl}-1,2-dihydropyrimidin-4-yl)-2-phenylacetamide]
22 | < 100 | < 100 | O=C(NCc1cccc(OC(F)(F)F)c1)c1cn(CC(F)CCn2ccc(NC(=O)[C@@H](O)c3ccccc3)c(F)c2=O)nn1 (stereo partly drawn) [Example 286, 1-(2-fluoro-4-{3-fluoro-4-[(2S)-2-hydroxy-2-phenylacetamido]-2-oxo-1,2-dihydropyridin-1-yl}butyl)-N-{[3-(trifluoromethoxy)phenyl]methyl}-1H-1,2,3-triazole-4-carboxamide]

— patent US20160002204A1 (Board of Regents, The University of Texas System, priority 2014, published 2016)
